Experimental data: ChEMBL document CHEMBL2429761, “Discovery of ML314, a Brain Penetrant Non-Peptidic β-Arrestin Biased Agonist of the Neurotensin NTR1 Receptor” (ACS Med Chem Lett, 2013)
Values after ≈ are worked out from the molar mass of the structure shown.

What was measured:
Plasma [1] = test: Metabolic stability in human plasma assessed as compound remaining at 1 uM after 3 hrs by LC-MS/MS analysis; format: ADME, cell-free
[2] = molecular target: T1, Alpha-1D adrenergic receptor (Homo sapiens) (UniProt P25100); test: Binding affinity to adrenergic alpha1D receptor (unknown origin) at 10 uM relative to control
T1 sequence (whole entry): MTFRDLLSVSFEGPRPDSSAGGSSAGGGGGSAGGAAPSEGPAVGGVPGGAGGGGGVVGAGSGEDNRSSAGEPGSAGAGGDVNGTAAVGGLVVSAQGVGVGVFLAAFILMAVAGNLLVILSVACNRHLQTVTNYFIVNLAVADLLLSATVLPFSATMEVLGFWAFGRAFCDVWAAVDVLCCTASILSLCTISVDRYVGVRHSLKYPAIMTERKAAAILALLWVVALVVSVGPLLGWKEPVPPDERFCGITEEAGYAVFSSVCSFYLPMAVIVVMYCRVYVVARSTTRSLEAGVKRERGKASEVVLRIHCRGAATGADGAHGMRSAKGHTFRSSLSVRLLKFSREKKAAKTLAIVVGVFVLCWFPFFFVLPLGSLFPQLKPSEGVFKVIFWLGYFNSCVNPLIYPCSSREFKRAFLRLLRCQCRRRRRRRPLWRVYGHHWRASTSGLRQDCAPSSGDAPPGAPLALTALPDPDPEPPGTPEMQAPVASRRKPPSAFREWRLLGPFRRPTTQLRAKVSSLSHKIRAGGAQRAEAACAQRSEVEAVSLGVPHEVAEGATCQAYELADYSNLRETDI

Translocator protein = Translocator protein (Homo sapiens, UniProt P30536); test: Binding affinity to PBR receptor (unknown origin)
Chain of Translocator protein (P30536 whole entry): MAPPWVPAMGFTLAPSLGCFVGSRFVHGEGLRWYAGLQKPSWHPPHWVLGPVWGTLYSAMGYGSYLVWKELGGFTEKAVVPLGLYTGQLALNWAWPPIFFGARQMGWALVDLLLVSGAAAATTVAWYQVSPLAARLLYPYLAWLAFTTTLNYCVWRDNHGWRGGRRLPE

[3] = molecular target: T2, Alpha-1A adrenergic receptor (Homo sapiens) (UniProt P35348); test: Binding affinity to adrenergic alpha1A receptor (unknown origin) at 10 uM relative to control
T2 sequence (whole entry): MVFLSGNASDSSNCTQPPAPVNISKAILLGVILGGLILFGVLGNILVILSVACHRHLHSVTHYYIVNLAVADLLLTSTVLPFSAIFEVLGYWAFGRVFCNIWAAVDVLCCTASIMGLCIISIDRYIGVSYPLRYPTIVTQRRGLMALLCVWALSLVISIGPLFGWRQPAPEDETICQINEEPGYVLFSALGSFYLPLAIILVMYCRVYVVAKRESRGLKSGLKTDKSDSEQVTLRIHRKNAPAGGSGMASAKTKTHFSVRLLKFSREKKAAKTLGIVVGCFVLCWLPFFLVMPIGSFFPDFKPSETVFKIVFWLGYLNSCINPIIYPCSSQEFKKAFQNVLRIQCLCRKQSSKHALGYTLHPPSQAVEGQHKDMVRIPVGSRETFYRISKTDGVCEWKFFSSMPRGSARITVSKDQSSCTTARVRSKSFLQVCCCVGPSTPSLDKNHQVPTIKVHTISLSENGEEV

Plasma [4] = test: Plasma protein binding in mouse at 10 uM after 4 hrs by LC-MS/MS analysis; format: ADME, cell-free
[5] = molecular target: Neurotensin receptor type 1 (Homo sapiens, UniProt P30989); settings: U2OS
Chain of Neurotensin receptor type 1 (P30989 whole entry): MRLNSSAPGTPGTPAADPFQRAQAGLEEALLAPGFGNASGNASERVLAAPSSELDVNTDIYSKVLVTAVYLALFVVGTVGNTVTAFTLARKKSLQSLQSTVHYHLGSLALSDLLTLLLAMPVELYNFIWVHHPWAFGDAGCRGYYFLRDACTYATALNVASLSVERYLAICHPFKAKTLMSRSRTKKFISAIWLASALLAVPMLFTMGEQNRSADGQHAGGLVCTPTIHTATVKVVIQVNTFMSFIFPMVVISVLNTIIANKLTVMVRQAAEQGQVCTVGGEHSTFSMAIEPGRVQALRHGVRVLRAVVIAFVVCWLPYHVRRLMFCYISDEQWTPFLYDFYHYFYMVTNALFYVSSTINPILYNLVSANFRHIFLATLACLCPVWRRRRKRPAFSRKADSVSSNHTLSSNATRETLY
Description: Agonist activity at NTR1 (unknown origin) expressed in human U2OS cells coexpressing beta-arrestin by GFP reporter gene assay

[6] = Drug uptake in C57BL/6J mouse brain at 30 mg/kg, ip after 1 hr by LC-MS/MS analysis; format: ADME, organism-based; set-up: dose 30 mg/kg, route intraperitoneal; settings: read-out: Drug uptake
Plasma [7] = test: Metabolic stability in mouse plasma assessed as compound remaining at 1 uM after 3 hrs by LC-MS/MS analysis; format: ADME, cell-free
[8] = molecular target: T3, Alpha-2A adrenergic receptor (Homo sapiens) (UniProt P08913); test: Binding affinity to adrenergic alpha2A receptor (unknown origin) at 10 uM relative to control
T3 sequence (whole entry): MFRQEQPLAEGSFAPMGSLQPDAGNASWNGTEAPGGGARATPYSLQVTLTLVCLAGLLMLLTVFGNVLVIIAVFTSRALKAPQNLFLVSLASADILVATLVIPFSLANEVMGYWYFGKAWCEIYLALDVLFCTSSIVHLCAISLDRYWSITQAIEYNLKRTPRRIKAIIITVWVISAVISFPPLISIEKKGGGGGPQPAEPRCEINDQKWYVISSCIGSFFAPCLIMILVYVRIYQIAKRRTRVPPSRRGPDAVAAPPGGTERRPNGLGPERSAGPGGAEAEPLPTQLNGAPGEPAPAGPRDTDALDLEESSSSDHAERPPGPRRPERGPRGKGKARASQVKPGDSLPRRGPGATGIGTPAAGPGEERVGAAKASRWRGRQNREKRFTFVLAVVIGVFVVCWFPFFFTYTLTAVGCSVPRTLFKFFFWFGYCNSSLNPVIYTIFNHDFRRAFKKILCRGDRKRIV

[9] = Kinetic solubility of the compound in PBS buffer at 250 uM after 18 hrs at pH 7.4; format: physicochemical; settings: read-out: Kinetic_solubility
Liver microsomes = test: Metabolic stability in human liver microsomes assessed as compound remaining at 1 to 10 uM after 1 hr by LC-MS/MS analysis; format: ADME, Microsome
[10] = Kinetic solubility of the compound in pION buffer at 250 uM after 18 hrs at pH 6.2; format: physicochemical; settings: read-out: Kinetic_solubility
[11] = molecular target: T4, Alpha-1B adrenergic receptor (Homo sapiens) (UniProt P35368); test: Binding affinity to adrenergic alpha1B receptor (unknown origin) at 10 uM relative to control
T4 sequence (whole entry): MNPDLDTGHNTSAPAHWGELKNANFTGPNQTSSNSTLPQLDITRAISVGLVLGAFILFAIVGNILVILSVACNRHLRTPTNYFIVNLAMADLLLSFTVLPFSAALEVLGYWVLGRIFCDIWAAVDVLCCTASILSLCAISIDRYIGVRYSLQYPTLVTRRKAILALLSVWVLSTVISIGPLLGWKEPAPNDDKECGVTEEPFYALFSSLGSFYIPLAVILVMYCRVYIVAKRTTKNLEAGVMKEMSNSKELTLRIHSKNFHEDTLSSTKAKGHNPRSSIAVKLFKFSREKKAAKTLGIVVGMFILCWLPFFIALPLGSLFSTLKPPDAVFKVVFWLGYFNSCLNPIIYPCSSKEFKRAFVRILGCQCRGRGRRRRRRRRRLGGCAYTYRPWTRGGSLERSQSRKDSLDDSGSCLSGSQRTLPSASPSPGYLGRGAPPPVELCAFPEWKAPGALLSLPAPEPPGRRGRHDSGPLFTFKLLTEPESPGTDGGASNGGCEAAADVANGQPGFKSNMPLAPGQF

[12] = molecular target: G-protein coupled receptor 35 (Homo sapiens, UniProt Q9HC97); test: Agonist activity at GPR35 (unknown origin) expressed in human U2OS cells coexpressing beta-arrestin by GFP reporter gene assay; format: cell-based
Chain of G-protein coupled receptor 35 (Q9HC97 whole entry): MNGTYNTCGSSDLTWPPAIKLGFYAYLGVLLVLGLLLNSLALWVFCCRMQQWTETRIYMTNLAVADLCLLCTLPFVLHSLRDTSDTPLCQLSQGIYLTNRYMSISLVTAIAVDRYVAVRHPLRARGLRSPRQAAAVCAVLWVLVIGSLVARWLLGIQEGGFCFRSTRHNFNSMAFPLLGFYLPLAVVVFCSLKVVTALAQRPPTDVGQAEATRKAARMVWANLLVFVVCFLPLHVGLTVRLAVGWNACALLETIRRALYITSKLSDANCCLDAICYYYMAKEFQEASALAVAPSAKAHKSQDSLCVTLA

Mu-type opioid receptor = Mu-type opioid receptor (Homo sapiens, UniProt P35372); test: Binding affinity to mu opioid receptor (unknown origin) at 10 uM relative to control
Chain of Mu-type opioid receptor (P35372 whole entry): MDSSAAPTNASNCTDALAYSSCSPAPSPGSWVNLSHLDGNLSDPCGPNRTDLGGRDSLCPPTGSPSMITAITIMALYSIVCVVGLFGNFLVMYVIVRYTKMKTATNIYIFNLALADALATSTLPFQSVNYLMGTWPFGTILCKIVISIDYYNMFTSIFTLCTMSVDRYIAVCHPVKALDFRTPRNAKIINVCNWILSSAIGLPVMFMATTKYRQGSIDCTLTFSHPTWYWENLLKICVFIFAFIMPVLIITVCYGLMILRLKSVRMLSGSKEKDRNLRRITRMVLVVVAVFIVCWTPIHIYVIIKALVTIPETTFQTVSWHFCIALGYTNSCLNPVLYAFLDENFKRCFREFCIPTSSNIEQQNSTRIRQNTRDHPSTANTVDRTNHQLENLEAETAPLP

[13] = molecular target: Neurotensin receptor type 2 (Homo sapiens, UniProt O95665); test: Agonist activity at NTR2 (unknown origin) expressed in human U2OS cells coexpressing beta-arrestin by GFP reporter gene assay; format: cell-based
Chain of Neurotensin receptor type 2 (O95665 whole entry): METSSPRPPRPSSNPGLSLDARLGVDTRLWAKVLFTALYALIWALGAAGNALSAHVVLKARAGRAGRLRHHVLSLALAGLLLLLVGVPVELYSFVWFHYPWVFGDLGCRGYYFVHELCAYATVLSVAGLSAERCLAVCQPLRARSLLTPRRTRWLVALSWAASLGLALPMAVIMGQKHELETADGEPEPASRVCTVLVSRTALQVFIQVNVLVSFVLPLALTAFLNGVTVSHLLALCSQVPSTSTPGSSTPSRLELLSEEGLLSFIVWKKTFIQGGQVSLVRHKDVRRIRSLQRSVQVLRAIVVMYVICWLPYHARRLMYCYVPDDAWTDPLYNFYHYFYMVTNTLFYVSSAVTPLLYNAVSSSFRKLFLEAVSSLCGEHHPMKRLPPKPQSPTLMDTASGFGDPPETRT

Plasma [14] = test: Plasma protein binding in mouse at 1 uM after 4 hrs by LC-MS/MS analysis; format: ADME, cell-free

## COc1cc2nc(C3CC3)nc(N3CCN(c4ccccc4OC)CC3)c2cc1OC
Plasma [1]
  Stability: 100%
[2]
  Activity: 63%
Translocator protein
  Ki: 2.54 µM
[3]
  Activity: 63%
Plasma [4]
  PPB: 98.9%
[5]
  EC100: 10 µM
[6]
  concentration at 1 h: 1510 ng/mL
Plasma [7]
  Stability: 99.6%
[8]
  Activity: 63%
[9]
  solubility kinetic at 18 h, 250 µM: 1.1 µM (≈ 0.463 µg/mL)
Liver microsomes
  Stability: 1.4%
[10]
  solubility kinetic at 18 h, 250 µM: 21.4 µM (≈ 9 µg/mL)
[11]
  Activity: 63%
[12]
  EC50: > 40 µM
Mu-type opioid receptor
  Activity: 86%
[13]
  EC50: > 80 µM
Plasma [14]
  PPB: 99.7%
